± gives the expanded uncertainty stated by the source.
Assay: excess molar enthalpy (molar enthalpy of mixing); xn = mol fraction of the nth substance listed
Conditions: Liquid, Flow calorimetry

What does the source list for `CCCCCC[N+]1(C)CCCC1.O=S(=O)([N-]S(=O)(=O)C(F)(F)F)C(F)(F)F` + c1ccccc1?
excess molar enthalpy (393.15 K, 2342 kPa, x2 = 0.0899): -0.0422 ± 0.00174 kcal/mol; excess molar enthalpy (393.15 K, 2342 kPa, x2 = 0.1686): -0.0867 ± 0.00359 kcal/mol; excess molar enthalpy (393.15 K, 2342 kPa, x2 = 0.238): -0.121 ± 0.00502 kcal/mol; excess molar enthalpy (393.15 K, 2342 kPa, x2 = 0.2998): -0.145 ± 0.00598 kcal/mol; excess molar enthalpy (393.15 K, 2342 kPa, x2 = 0.355): -0.177 ± 0.00717 kcal/mol; excess molar enthalpy (393.15 K, 2342 kPa, x2 = 0.4047): -0.199 ± 0.00813 kcal/mol; excess molar enthalpy (393.15 K, 2342 kPa, x2 = 0.4906): -0.227 ± 0.00932 kcal/mol; excess molar enthalpy (393.15 K, 2342 kPa, x2 = 0.5622): -0.252 ± 0.0103 kcal/mol; excess molar enthalpy (393.15 K, 2342 kPa, x2 = 0.6228): -0.263 ± 0.0108 kcal/mol; excess molar enthalpy (393.15 K, 2342 kPa, x2 = 0.7198): -0.236 ± 0.00956 kcal/mol; excess molar enthalpy (393.15 K, 2342 kPa, x2 = 0.7939): -0.19 ± 0.00789 kcal/mol; excess molar enthalpy (393.15 K, 2342 kPa, x2 = 0.8525): -0.141 ± 0.00574 kcal/mol; excess molar enthalpy (393.15 K, 2342 kPa, x2 = 0.9204): -0.0734 ± 0.00311 kcal/mol; excess molar enthalpy (393.15 K, 2342 kPa, x2 = 0.972): -0.0246 ± 0.00105 kcal/mol

Which results are given for `CCCC[N+]1(C)CCCC1.O=S(=O)([N-]S(=O)(=O)C(F)(F)F)C(F)(F)F` + Cc1ccccc1?
excess molar enthalpy (413.15 K, 2342 kPa, x2 = 0.0687): -0.029 ± 0.00122 kcal/mol; excess molar enthalpy (413.15 K, 2342 kPa, x2 = 0.1315): -0.0605 ± 0.00239 kcal/mol; excess molar enthalpy (413.15 K, 2342 kPa, x2 = 0.1892): -0.0872 ± 0.00359 kcal/mol; excess molar enthalpy (413.15 K, 2342 kPa, x2 = 0.2423): -0.103 ± 0.0043 kcal/mol; excess molar enthalpy (413.15 K, 2342 kPa, x2 = 0.2914): -0.119 ± 0.00478 kcal/mol; excess molar enthalpy (413.15 K, 2342 kPa, x2 = 0.3368): -0.136 ± 0.0055 kcal/mol; excess molar enthalpy (413.15 K, 2342 kPa, x2 = 0.4184): -0.16 ± 0.00645 kcal/mol; excess molar enthalpy (413.15 K, 2342 kPa, x2 = 0.4896): -0.168 ± 0.00693 kcal/mol; excess molar enthalpy (413.15 K, 2342 kPa, x2 = 0.5523): -0.166 ± 0.00669 kcal/mol; excess molar enthalpy (413.15 K, 2342 kPa, x2 = 0.6574): -0.153 ± 0.00621 kcal/mol; excess molar enthalpy (413.15 K, 2342 kPa, x2 = 0.7421): -0.123 ± 0.00502 kcal/mol; excess molar enthalpy (413.15 K, 2342 kPa, x2 = 0.8119): -0.094 ± 0.00382 kcal/mol; excess molar enthalpy (413.15 K, 2342 kPa, x2 = 0.8962): -0.0543 ± 0.00225 kcal/mol; excess molar enthalpy (413.15 K, 2342 kPa, x2 = 0.9628): -0.0181 ± 0.000789 kcal/mol

For `CCCCCC[N+]1(C)CCCC1.O=S(=O)([N-]S(=O)(=O)C(F)(F)F)C(F)(F)F` + Cc1ccccc1, which excess molar enthalpy (413.15 K, 2377 kPa, x2 = 0.0759) is on record?
The excess molar enthalpy was -0.0366 ± 0.00153 kcal/mol.

What about the excess molar enthalpy (413.15 K, 2377 kPa, x2 = 0.1443) of the same compound?
The excess molar enthalpy was -0.0704 ± 0.00287 kcal/mol.

What about the excess molar enthalpy (413.15 K, 2377 kPa, x2 = 0.2063) of the same compound?
The excess molar enthalpy was -0.0967 ± 0.00406 kcal/mol.

And the excess molar enthalpy (413.15 K, 2377 kPa, x2 = 0.2626)?
The excess molar enthalpy was -0.121 ± 0.00502 kcal/mol.

What about the excess molar enthalpy (413.15 K, 2377 kPa, x2 = 0.314) of the same compound?
Its excess molar enthalpy is -0.145 ± 0.00598 kcal/mol.

And the excess molar enthalpy (413.15 K, 2377 kPa, x2 = 0.3612)?
Its excess molar enthalpy is -0.165 ± 0.00669 kcal/mol.

What about the excess molar enthalpy (413.15 K, 2377 kPa, x2 = 0.4448) of the same compound?
Its excess molar enthalpy is -0.189 ± 0.00765 kcal/mol.

And the excess molar enthalpy (413.15 K, 2377 kPa, x2 = 0.5165)?
The excess molar enthalpy was -0.199 ± 0.00813 kcal/mol.

And the excess molar enthalpy (413.15 K, 2377 kPa, x2 = 0.5787)?
The excess molar enthalpy was -0.203 ± 0.00837 kcal/mol.

What about the excess molar enthalpy (413.15 K, 2377 kPa, x2 = 0.6812) of the same compound?
The excess molar enthalpy was -0.188 ± 0.00765 kcal/mol.

What about the excess molar enthalpy (413.15 K, 2377 kPa, x2 = 0.7622) of the same compound?
Its excess molar enthalpy is -0.151 ± 0.00621 kcal/mol.

And the excess molar enthalpy (413.15 K, 2377 kPa, x2 = 0.8278)?
Its excess molar enthalpy is -0.112 ± 0.00454 kcal/mol.

What about the excess molar enthalpy (413.15 K, 2377 kPa, x2 = 0.9058) of the same compound?
Its excess molar enthalpy is -0.0643 ± 0.00263 kcal/mol.

And the excess molar enthalpy (413.15 K, 2377 kPa, x2 = 0.9665)?
The excess molar enthalpy was -0.0259 ± 0.0011 kcal/mol.

For `CCCC[N+]1(C)CCCC1.O=S(=O)([N-]S(=O)(=O)C(F)(F)F)C(F)(F)F` + c1ccccc1, which excess molar enthalpy (363.15 K, 2239 kPa, x2 = 0.0815) is on record?
Its excess molar enthalpy is -0.0309 ± 0.00129 kcal/mol.

And the excess molar enthalpy (363.15 K, 2239 kPa, x2 = 0.1541)?
The excess molar enthalpy was -0.0622 ± 0.00263 kcal/mol.

What about the excess molar enthalpy (363.15 K, 2239 kPa, x2 = 0.2191) of the same compound?
The excess molar enthalpy was -0.0851 ± 0.00359 kcal/mol.

What about the excess molar enthalpy (363.15 K, 2239 kPa, x2 = 0.2777) of the same compound?
Its excess molar enthalpy is -0.11 ± 0.00454 kcal/mol.

And the excess molar enthalpy (363.15 K, 2239 kPa, x2 = 0.3308)?
The excess molar enthalpy was -0.136 ± 0.0055 kcal/mol.

What about the excess molar enthalpy (363.15 K, 2239 kPa, x2 = 0.3792) of the same compound?
The excess molar enthalpy was -0.154 ± 0.00621 kcal/mol.

What about the excess molar enthalpy (363.15 K, 2239 kPa, x2 = 0.4639) of the same compound?
Its excess molar enthalpy is -0.181 ± 0.00741 kcal/mol.

And the excess molar enthalpy (363.15 K, 2239 kPa, x2 = 0.5357)?
The excess molar enthalpy was -0.203 ± 0.00837 kcal/mol.

What about the excess molar enthalpy (363.15 K, 2239 kPa, x2 = 0.7758) of the same compound?
Its excess molar enthalpy is -0.175 ± 0.00717 kcal/mol.

And the excess molar enthalpy (363.15 K, 2239 kPa, x2 = 0.8385)?
The excess molar enthalpy was -0.125 ± 0.00502 kcal/mol.

And the excess molar enthalpy (363.15 K, 2239 kPa, x2 = 0.9121)?
The excess molar enthalpy was -0.07 ± 0.00287 kcal/mol.

And the excess molar enthalpy (363.15 K, 2239 kPa, x2 = 0.9689)?
Its excess molar enthalpy is -0.0232 ± 0.00098 kcal/mol.

Reference: the NIST ThermoML archive (doi:10.1016/j.fluid.2010.09.021)
